{
  "source": "patent EP0345906B1",
  "about": "“Unique elastase induced fibrinogen cleavage site antigens” (MERCK & CO. INC., priority 1988, dated 1989)",
  "key": {"whole human blood": {"system": "whole human blood", "experiment": "In vitro production of Aα 17-21 epitope containing peptide in human blood, other membrane perturbators with cytochalasin B", "type": "cell-based", "conditions": "5 mg/ml cytochalasin B", "procedure": "Other known membrane perturbators have been used to evaluate the in vitro production of the epitope containing cleavage peptide Aα 17-21 in human blood. Aliquots of freshly-drawn heparinized whole blood were incubated for 25 minutes at 37°C in the presence of either 5 mg/ml cytochalasin B and concentrations of phorbol-12-myristate-13-acetate (PMA) ranging up to 20 mM or in the presence of the combination of 5 mg/ml cytochalasin B and concentrations of n-formyl-L-norleucyl-L-leucyl-L-phenylalanine (FNLP) ranging up to 20 mM. Plasma was collected, prepared and assayed as described above."}, "human leukocyte elastase": {"target": "T1, human leukocyte elastase (Homo sapiens, UniProt P08246)", "T1 construct": "exposure of whole human blood to calcium ionophore A23187 results in elastase cleavage product by allowing the release of neutrophil elastase; endogenous in cells; host or cells: leukocytes (neutrophils) in freshly drawn heparinized whole human blood, stimulated with A23187", "T1 sequence (P08246 30-267)": "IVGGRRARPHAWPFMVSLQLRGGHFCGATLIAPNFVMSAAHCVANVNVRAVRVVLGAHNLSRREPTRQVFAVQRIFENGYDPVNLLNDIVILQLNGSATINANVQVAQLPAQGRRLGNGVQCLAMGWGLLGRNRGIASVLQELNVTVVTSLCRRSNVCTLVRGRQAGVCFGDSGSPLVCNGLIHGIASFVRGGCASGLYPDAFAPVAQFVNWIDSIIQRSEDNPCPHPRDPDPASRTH", "experiment": "Elastase inhibitor activity assay: A23187-stimulated fibrinogen cleavage peptide production in whole human blood", "type": "cell-based", "conditions": "A23187 150 mM", "procedure": "The above defined assay technology is used to monitor the activity of human elastase inhibitors on human leukocyte elastase activity in human and primate blood. […] Replicate aliquots of freshly-drawn heparinized whole human blood are prepared with concentrations of elastase inhibitor ranging up to about 300 mg/ml. Following a brief pre-incubation with the inhibitor, a membrane perturbator, such as calcium ionophore A23187, is added at a concentration of between about 75 mM and about 300 mM. Non-membrane perturbator controls containing blood and perturbator-only controls are included to measure the extent of uninhibited peptide generation. All assay samples are incubated at about 37°C for about 25 minutes. The plasma is then prepared and assayed for fibrinogen cleavage products as described above.\nThe effect of the elastase inhibitor 3-Acetoxymethyl-1a-methoxy-6-oxo-5-thia-1-azabicyclo[4.2.0]oct-2-ene-2-(2-(S)-carboxypyrrolidinecarboxamide)5,5-dioxide (compound 1) on the calcium ionophore A23187-induced fibrinogen cleavage peptide production was evaluated. Replicate 2 ml aliquots of freshly-drawn heparinized whole human blood were prepared with concentrations of compound 1 ranging up to […]. Following a brief pre-incubation of 5 minutes at 37°C, calcium ionophore A23187 was added to a final concentration of 150 mM. Non-ionophore containing blood and ionophore-only (no inhibitor) controls were included to measure the extent of uninhibited peptide generation. All aliquots were incubated at 37°C for 25 minutes, the plasma collected, processed and assayed for fibrinogen cleavage peptide as described above."}, "leukocyte elastase": {"system": "leukocyte elastase", "experiment": "Ionophore-induced peptide production in blood drawn from an elastase inhibitor-treated chimpanzee", "type": "in vivo", "procedure": "In vivo inhibition of fibrinogen cleavage products following treatment of primates with an elastase inhibitor is evaluated. Blood or fluid samples are collected both before and after treatment with either an elastase inhibitor or saline. Each heparinized blood sample is divided into about 4 aliquots (about 1 ml) and processed as described above. Treatment of an animal with an elastase inhibitor causes a marked reduction in the amount of elastase cleavage product produced.\nTwo chimpanzees were anesthetized and fitted with venous catheters for the collection of blood. Blood was collected from each animal at intervals over a 60 minute period prior to the administration of the elastase inhibitor. All blood samples were collected in heparin. After the initial 60 minute period one animal was given an intravenous injection of 10 mg/kg of the elastase inhibitor compound 1 while the other animal received an equivalent volume of normal saline. Additional heparinized blood samples were taken from both animals at regular intervals over the next 60 minutes. Each freshly-drawn sample of whole heparinized chimpanzee blood was divided into 4 aliquots. Calcium ionophore A23187 was added at a final concentration of 150 mM to two of the aliquots and an equivalent volume of the DMSO vehicle was added to the other two. All blood samples were incubated at 37° for 25 minutes, plasma collected and assayed as described above.\nElastase inhibitor was infused into the treated animal at time 0."}},
  "data": [
    {"compound": "CCCCCCCCCCCCCC(=O)O[C@@H]1[C@@H](C)[C@@]2(O)[C@@H](C=C(CO)C[C@]3(O)C(=O)C(C)=C[C@@H]23)[C@@H]2C(C)(C)[C@]12OC(C)=O", "note": "[PMA, phorbol-12-myristate-13-acetate]", "values": [
      {"measurement": "Aα 17-21 Epitope Containing Peptide Produced (picomoles/ml plasma)", "setting": "whole human blood; PMA 0.003 mMolar, 25 minutes at 37°C", "value": 0.0, "unit": "picomoles/ml plasma"},
      {"measurement": "Aα 17-21 Epitope Containing Peptide Produced (picomoles/ml plasma)", "setting": "whole human blood; PMA 0.010 mMolar", "value": 0.3, "unit": "picomoles/ml plasma"},
      {"measurement": "Aα 17-21 Epitope Containing Peptide Produced (picomoles/ml plasma)", "setting": "whole human blood; PMA 0.03 mMolar", "value": 0.3, "unit": "picomoles/ml plasma"},
      {"measurement": "Aα 17-21 Epitope Containing Peptide Produced (picomoles/ml plasma)", "setting": "whole human blood; PMA 0.10 mMolar", "value": 0.4, "unit": "picomoles/ml plasma"},
      {"measurement": "Aα 17-21 Epitope Containing Peptide Produced (picomoles/ml plasma)", "setting": "whole human blood; PMA 0.30 mMolar", "value": 0.9, "unit": "picomoles/ml plasma"},
      {"measurement": "Aα 17-21 Epitope Containing Peptide Produced (picomoles/ml plasma)", "setting": "whole human blood; PMA 1.0 mMolar", "value": 1.5, "unit": "picomoles/ml plasma"},
      {"measurement": "Aα 17-21 Epitope Containing Peptide Produced (picomoles/ml plasma)", "setting": "whole human blood; PMA 3.0 mMolar", "value": 2.6, "unit": "picomoles/ml plasma"},
      {"measurement": "Aα 17-21 Epitope Containing Peptide Produced (picomoles/ml plasma)", "setting": "whole human blood; PMA 10.0 mMolar", "value": 3.0, "unit": "picomoles/ml plasma"},
      {"measurement": "Aα 17-21 Epitope Containing Peptide Produced (picomoles/ml plasma)", "setting": "whole human blood; PMA 20.0 mMolar", "value": 3.7, "unit": "picomoles/ml plasma"}
    ]},
    {"compound": "COC1C(=O)N2C(C(=O)N3CCCC3C(=O)O)=C(COC(C)=O)CS(=O)(=O)C12", "note": "[compound 1, 3-Acetoxymethyl-1a-methoxy-6-oxo-5-thia-1-azabicyclo[4.2.0]oct-2-ene-2-(2-(S)-carboxypyrrolidinecarboxamide)5,5-dioxide]", "values": [
      {"measurement": "Cleavage Product Produced picomoles/ml", "setting": "human leukocyte elastase; Elastase Inhibitor 1 mg/ml", "value": 2.3, "unit": "picomoles/ml"},
      {"measurement": "inhibition at 1000 µg/mL", "setting": "human leukocyte elastase; Elastase Inhibitor 1 mg/ml, read-out: Percent Inhibition", "value": 4, "unit": "%"},
      {"measurement": "Cleavage Product Produced picomoles/ml", "setting": "human leukocyte elastase; Elastase Inhibitor 5 mg/ml", "value": 1.6, "unit": "picomoles/ml"},
      {"measurement": "Cleavage Product Produced picomoles/ml", "setting": "human leukocyte elastase; Elastase Inhibitor 10 mg/ml", "value": 1.6, "unit": "picomoles/ml"},
      {"measurement": "Cleavage Product Produced picomoles/ml", "setting": "human leukocyte elastase; Elastase Inhibitor 20 mg/ml", "value": 1.5, "unit": "picomoles/ml"},
      {"measurement": "Cleavage Product Produced picomoles/ml", "setting": "human leukocyte elastase; Elastase Inhibitor 30 mg/ml", "value": 1.2, "unit": "picomoles/ml"},
      {"measurement": "Cleavage Product Produced picomoles/ml", "setting": "human leukocyte elastase; Elastase Inhibitor 40 mg/ml", "value": 0.8, "unit": "picomoles/ml"},
      {"measurement": "Cleavage Product Produced picomoles/ml", "setting": "human leukocyte elastase; Elastase Inhibitor 80 mg/ml", "value": 0.4, "unit": "picomoles/ml"},
      {"measurement": "A 1-21 Peptide Produced (picomoles/ml plasma) Treated", "setting": "leukocyte elastase; Time 1.0 min after intravenous injection of 10 mg/kg, blood stimulated with A23187 150 mM", "value": 1.10, "unit": "picomoles/ml plasma"},
      {"measurement": "A 1-21 Peptide Produced (picomoles/ml plasma) Treated", "setting": "leukocyte elastase; Time 2.5 min after intravenous 10 mg/kg", "value": 1.30, "unit": "picomoles/ml plasma"},
      {"measurement": "A 1-21 Peptide Produced (picomoles/ml plasma) Treated", "setting": "leukocyte elastase; Time 5.0 min after intravenous 10 mg/kg", "value": 1.60, "unit": "picomoles/ml plasma"},
      {"measurement": "A 1-21 Peptide Produced (picomoles/ml plasma) Treated", "setting": "leukocyte elastase; Time 7.5 min after intravenous 10 mg/kg", "value": 2.00, "unit": "picomoles/ml plasma"},
      {"measurement": "A 1-21 Peptide Produced (picomoles/ml plasma) Treated", "setting": "leukocyte elastase; Time 10.0 min after intravenous 10 mg/kg", "value": 1.80, "unit": "picomoles/ml plasma"},
      {"measurement": "A 1-21 Peptide Produced (picomoles/ml plasma) Treated", "setting": "leukocyte elastase; Time 12.5 min after intravenous 10 mg/kg", "value": 1.70, "unit": "picomoles/ml plasma"},
      {"measurement": "A 1-21 Peptide Produced (picomoles/ml plasma) Treated", "setting": "leukocyte elastase; Time 15.0 min after intravenous 10 mg/kg", "value": 0.98, "unit": "picomoles/ml plasma"},
      {"measurement": "A 1-21 Peptide Produced (picomoles/ml plasma) Treated", "setting": "leukocyte elastase; Time 20.0 min after intravenous 10 mg/kg", "value": 1.90, "unit": "picomoles/ml plasma"},
      {"measurement": "A 1-21 Peptide Produced (picomoles/ml plasma) Treated", "setting": "leukocyte elastase; Time 30.0 min after intravenous 10 mg/kg", "value": 2.20, "unit": "picomoles/ml plasma"},
      {"measurement": "A 1-21 Peptide Produced (picomoles/ml plasma) Treated", "setting": "leukocyte elastase; Time 40.0 min after intravenous 10 mg/kg", "value": 3.10, "unit": "picomoles/ml plasma"},
      {"measurement": "A 1-21 Peptide Produced (picomoles/ml plasma) Treated", "setting": "leukocyte elastase; Time 50.0 min after intravenous 10 mg/kg", "value": 2.60, "unit": "picomoles/ml plasma"},
      {"measurement": "A 1-21 Peptide Produced (picomoles/ml plasma) Treated", "setting": "leukocyte elastase; Time 60.0 min after intravenous 10 mg/kg", "value": 2.50, "unit": "picomoles/ml plasma"},
      {"measurement": "levels of the fibrinogen peptide produced in response to calcium ionophore A23187 after infusion", "setting": "leukocyte elastase; treated chimpanzee, 10 mg/kg intravenous, in words", "value": "markedly lower levels"}
    ]},
    {"compound": "n-formyl-L-norleucyl-L-leucyl-L-phenylalanine [FNLP]", "values": [
      {"measurement": "Aα 17-21 Epitope Containing Peptide Produced (picomoles/ml plasma)", "setting": "whole human blood; FNLP 0.001 mMolar, 25 minutes at 37°C", "value": 0.0, "unit": "picomoles/ml plasma"},
      {"measurement": "Aα 17-21 Epitope Containing Peptide Produced (picomoles/ml plasma)", "setting": "whole human blood; FNLP 0.003 mMolar", "value": 0.0, "unit": "picomoles/ml plasma"},
      {"measurement": "Aα 17-21 Epitope Containing Peptide Produced (picomoles/ml plasma)", "setting": "whole human blood; FNLP 0.010 mMolar", "value": 0.0, "unit": "picomoles/ml plasma"},
      {"measurement": "Aα 17-21 Epitope Containing Peptide Produced (picomoles/ml plasma)", "setting": "whole human blood; FNLP 0.03 mMolar", "value": 0.4, "unit": "picomoles/ml plasma"},
      {"measurement": "Aα 17-21 Epitope Containing Peptide Produced (picomoles/ml plasma)", "setting": "whole human blood; FNLP 0.1 mMolar", "value": 0.9, "unit": "picomoles/ml plasma"},
      {"measurement": "Aα 17-21 Epitope Containing Peptide Produced (picomoles/ml plasma)", "setting": "whole human blood; FNLP 0.3 mMolar", "value": 1.1, "unit": "picomoles/ml plasma"},
      {"measurement": "Aα 17-21 Epitope Containing Peptide Produced (picomoles/ml plasma)", "setting": "whole human blood; FNLP 1.0 mMolar", "value": 1.1, "unit": "picomoles/ml plasma"},
      {"measurement": "Aα 17-21 Epitope Containing Peptide Produced (picomoles/ml plasma)", "setting": "whole human blood; FNLP 3.0 mMolar", "value": 1.3, "unit": "picomoles/ml plasma"},
      {"measurement": "Aα 17-21 Epitope Containing Peptide Produced (picomoles/ml plasma)", "setting": "whole human blood; FNLP 10.0 mMolar", "value": 1.2, "unit": "picomoles/ml plasma"},
      {"measurement": "Aα 17-21 Epitope Containing Peptide Produced (picomoles/ml plasma)", "setting": "whole human blood; FNLP 20.0 mMolar", "value": 1.3, "unit": "picomoles/ml plasma"}
    ]}
  ]
}
